Test results reported in patent publication US20240390383A1, “DIOXAZINES AND THEIR USE IN TREATMENT OF GBA-RELATED DISEASES” (ZEVRA DENMARK A/S, priority 2021, published 2024).

Target: T1, GCase (GBA) in human fibroblast cell line GM10915 harboring the L444P GBA mutation (Homo sapiens, UniProt P04062, L483P)
T1 construct: Human fibroblast cell line GM10915 harboring the L444P GBA mutation; host or cells: GM10915 human fibroblasts
T1 sequence (P04062 40-536 L483P): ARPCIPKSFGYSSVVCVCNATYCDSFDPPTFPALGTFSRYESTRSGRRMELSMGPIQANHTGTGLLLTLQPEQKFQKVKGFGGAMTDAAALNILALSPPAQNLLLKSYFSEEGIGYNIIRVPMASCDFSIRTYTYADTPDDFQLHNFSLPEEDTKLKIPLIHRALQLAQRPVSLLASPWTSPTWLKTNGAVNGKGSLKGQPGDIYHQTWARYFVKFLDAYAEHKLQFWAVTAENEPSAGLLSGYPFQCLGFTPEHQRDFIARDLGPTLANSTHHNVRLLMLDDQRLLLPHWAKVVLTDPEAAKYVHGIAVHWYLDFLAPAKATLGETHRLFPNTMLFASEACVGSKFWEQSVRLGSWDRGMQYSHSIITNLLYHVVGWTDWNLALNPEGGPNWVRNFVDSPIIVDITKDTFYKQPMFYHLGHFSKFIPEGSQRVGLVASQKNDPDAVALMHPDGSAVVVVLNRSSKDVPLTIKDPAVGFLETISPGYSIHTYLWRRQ
Experiment: GCase activity assay (4-MUG substrate, normalised to crystal violet staining) in L444P GBA fibroblasts
Format: cell-based
Conditions: 5 days exposure; for GBA EC1.5: concentration giving 150% GCase activity (1.5-fold induction), 8-point dose range; for Emax / GBA Emax: maximum percent GCase activity relative to untreated cells in the dose range tested
Method in brief: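 Patient fibroblasts GM10915 (L444P GBA) exposed to compounds for five days over an 8-point range, with fresh dosing every 2–3 days. Intact-cell GCase measured with 2.5 mM 4-MUG at pH 4.0 for 23 h at 37 °C (ex/em 365/445 nm), normalised to crystal violet, as % of PBS basal; Emax is the maximum reached.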

Structure (SMILES)	GBA EC1.5 [µM]	Emax [%]	GBA Emax [%]
COc1ccc(CC2(C3=NOCC(CN4CCCCC4)O3)CCNCC2)c(C)n1 (stereo not drawn) [compound 703]	50	113	–
O[C@@H]1CC[C@@H](C2=NOCC(CN3CCCCC3)O2)C1 (stereo partly drawn) [compound 704]	50	117	–
NC(=O)N1CCCC(C2=NOCC(CN3CCCCC3)O2)C1 (stereo not drawn) [compound 717]	50	111	–
C[C@H](N)C(=O)N1CCCC(C2=NOCC(CN3CCCCC3)O2)C1 (stereo partly drawn) [compound 718, rac-(2S)-2-amino-1-(3-(5-(piperidin-1-ylmethyl)-5,6-dihydro-1,4,2-dioxazin-3-yl)piperidin-1-yl)propan-1-one]	17	341	–
COc1cc(OC)c(CNCCC2=NOCC(CN3CCCCC3)O2)cn1 (stereo not drawn) [compound 829]	5	175	–
c1cnn(C2(C3=NOCC(CN4CCCCC4)O3)CCNCC2)c1 (stereo not drawn) [compound 848]	2	311	–
COc1ccc(C2(C3=NOCC(CN4CCCCC4)O3)CCNCC2)nc1 (stereo not drawn) [compound 852]	4	203	–
c1cc(C2CCCNC2)ccc1C1=NOCC(CN2CCCCC2)O1 (stereo not drawn) [compound 856]	2	134	–
C1CCN(CC2CON=C(C3CC4CNCC3O4)O2)CC1 (stereo not drawn) [compound 862]	15	212	–
C1CCN(CC2CON=C(CC3CNCCO3)O2)CC1 (stereo not drawn) [compound 863]	6	253	–
CN1CCC(C2=NOCC(C)(CN3CCCCC3)O2)CC1 (stereo not drawn) [compound 870]	6	217	–
c1nc(C2CCNCC2)sc1C1=NOCC(CN2CCCCC2)O1 (stereo not drawn) [compound 874]	5	194	–
c1nc(C2CCCNC2)sc1C1=NOCC(CN2CCCCC2)O1 (stereo not drawn) [compound 875]	5	165	–
c1sc(C2CCCNC2)nc1C1=NOCC(CN2CCCCC2)O1 (stereo not drawn) [compound 876]	4	180	–
c1sc(C2CCNCC2)nc1C1=NOCC(CN2CCCCC2)O1 (stereo not drawn) [compound 878]	3	231	–

Now from value to molecule:

GBA EC1.5 [µM]	Emax [%]	GBA Emax [%]	Structure (SMILES)
5	219	–	C[C@]1(C2=NOC[C@H](CN3CCCCC3)O2)CCCNC1 [compound 881]
5	214	–	C[C@@]1(C2=NOC[C@H](CN3CCCCC3)O2)CCCNC1 [compound 882]
7	201	–	C[C@@]1(C2=NOC[C@@H](CN3CCCCC3)O2)CCCNC1 [compound 883]
6	207	–	C[C@]1(C2=NOC[C@@H](CN3CCCCC3)O2)CCCNC1 [compound 884]
7	–	203	CC1(C2=NOC[C@@H](CN3CCCCC3)O2)CCNCC1 [compound 886]
5	233	–	C[C@@H]1ON=C(C2(C)CCNCC2)O[C@H]1CN1CCCCC1 [compound 887]
8	168	–	C1CCN(CCC2=NOC[C@@H](CN3CCCCC3)O2)CC1 [compound 890]
15	209	–	C1CCN(CCC2=NOC[C@H](CN3CCCCC3)O2)CC1 [compound 891]
13	–	274	CC1(C2=NOC[C@@H](CN3CCCCC3)O2)CCNCC1 [compound 892]
